Assay results as given in publication PMC9848473 (Science Advances, 2023).
Values belong to the compound of their own block, whether it stands above or below them.

What was measured:
[1] = molecular target: T1, RelBs^NTD2:DarB2 complex (DarB:RelBs^NTD) (Bacillus subtilis, UniProt O54408); assay: stopped-flow FRET, Kd = koff/kon; assay type: binding; settings: read-out: Kd^MANT-ATP
T1 construct: gene relA; heterotetramer of Rel residues 1 to 373 with full-length DarB, His10-SUMO tags cleaved, complex purified by size exclusion chromatography; with CBS domain-containing protein YkuL
T1 sequence (O54408 1-373): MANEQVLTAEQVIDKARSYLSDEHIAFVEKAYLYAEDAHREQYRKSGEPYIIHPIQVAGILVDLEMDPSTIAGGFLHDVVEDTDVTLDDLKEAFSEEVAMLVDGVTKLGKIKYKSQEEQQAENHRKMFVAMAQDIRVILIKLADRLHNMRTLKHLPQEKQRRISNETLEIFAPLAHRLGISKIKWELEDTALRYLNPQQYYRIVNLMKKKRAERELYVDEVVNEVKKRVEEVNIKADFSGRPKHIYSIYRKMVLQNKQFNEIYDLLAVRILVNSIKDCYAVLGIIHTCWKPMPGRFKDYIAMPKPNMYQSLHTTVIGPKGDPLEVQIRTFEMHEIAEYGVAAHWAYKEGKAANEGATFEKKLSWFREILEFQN
T1 sequence (O31698 whole entry, further chain, the tested form may be a part): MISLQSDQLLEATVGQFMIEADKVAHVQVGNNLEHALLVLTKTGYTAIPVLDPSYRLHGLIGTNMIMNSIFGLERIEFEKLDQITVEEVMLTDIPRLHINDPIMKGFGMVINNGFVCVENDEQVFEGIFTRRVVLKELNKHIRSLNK

[2] = molecular target: T2, RelBs^NTD (Bacillus subtilis, UniProt O54408); assay: isothermal titration calorimetry; assay type: binding; settings: 25°C; pH 7.5; 10 mM MgCl2
T2 construct: gene relA; N-terminal domain region, residues 1 to 373 (HD, SYNTH and core domains), His10-SUMO tag cleaved with Ulp1, from E. coli BL21(DE3)
T2 sequence (O54408 1-373): as the sequence (O54408 1-373) above

[3] = molecular target: T1, RelBs^NTD2:DarB2 complex (DarB:RelBs^NTD); assay: isothermal titration calorimetry; assay type: binding
[4] = molecular target: DarB (Bacillus subtilis, UniProt O31698); assay: biochemical
DarB, sequence (O31698 whole entry): as the sequence (O31698 whole entry, further chain, the tested form may be a part) above

Kd [1]: 308 µM
Structure (SMILES): CNc1ccccc1C(=O)O[C@H]1[C@@H](O)[C@H](n2cnc3c(N)ncnc32)O[C@@H]1CO[P@@](=O)(O)O[P@](=O)(O)OP(=O)(O)O (mixture of isomers) [MANT-ATP]

Structure (SMILES): Nc1ncnc2c1ncn2[C@@H]1O[C@H](COP(=O)(O)CP(=O)(O)OP(=O)(O)O)[C@@H](O)[C@H]1O [APCPP, adenosine-5′-[(α,β)-methyleno]triphosphate]
isothermal titration calorimetry [2]: RelBs^NTD alone has low affinity to APCPP (Fig. 5G) | Kd ([3]; read-out: Kd^APCPP): 115 µM

Kd [4]: 0.0457 µM
Structure (SMILES): Nc1ncnc2c1ncn2[C@@H]1O[C@@H]2COP(=O)(O)O[C@H]3[C@@H](O)[C@H](n4cnc5c(N)ncnc54)O[C@@H]3COP(=O)(O)O[C@H]2[C@H]1O [c-di-AMP]

Kd ([3]; read-out: Kd): 8.2 µM
Structure (SMILES): Nc1nc2c(ncn2[C@@H]2O[C@H](COP(=O)(O)OP(=O)(O)OP(=O)(O)O)[C@@H](OP(=O)(O)OP(=O)(O)O)[C@H]2O)c(=O)[nH]1 [pppGpp]
